These results are taken from patent publication US10206937B2, “Boronic acid derivatives and therapeutic uses thereof” (Qpex Biopharma, Inc., priority 2014, dated 2019).

A value given as a limit tells only on which side of the number the result lay.

The target of assay [1] is T1, NDM-1 (Klebsiella pneumoniae, UniProt C7C422). Kind of assay: biochemical.
The target of another assay is T2, VIM-1 (Pseudomonas aeruginosa, UniProt A0A0F7KYQ8).
T2 construct: made in house; host or cells: ECM6711 strain carrying pUCP24-VIM-1 plasmid; culture supernatant used unpurified
Kind of assay: biochemical. The note with it: cleavage of nitrocefin (200 uM) by VIM-1 supernatant.

A further assay has as its target OXA-48 (Klebsiella pneumoniae, UniProt Q6XEC0). Kind of assay: Inhibition of purified class D carbapenemase OXA-48 (Ki, carbapenem substrates). Format: biochemical. The note with it: purified OXA-48, substrate biapenem; read-out: Ki OXA-48, Biapenem.
Assay [2] has as its target T1, NDM-1. Nature of the assay: Inhibition of purified class B carbapenemase NDM-1 (Ki, imipenem substrate). The assay is classed as biochemical. Conditions: NDM-1, substrate imipenem; read-out: Ki NDM-1, Imipenem.
The target in assay [3] is T3, purified class A, C and D enzymes (UniProt P0AD64, L31Q/G234S/E235K, species not given).
T3 construct: Ki (SHV-12, NCF); other: purified SHV-12; nitrocefin reporter substrate
T3 sequence (P0AD64 1-286 L31Q/G234S/E235K): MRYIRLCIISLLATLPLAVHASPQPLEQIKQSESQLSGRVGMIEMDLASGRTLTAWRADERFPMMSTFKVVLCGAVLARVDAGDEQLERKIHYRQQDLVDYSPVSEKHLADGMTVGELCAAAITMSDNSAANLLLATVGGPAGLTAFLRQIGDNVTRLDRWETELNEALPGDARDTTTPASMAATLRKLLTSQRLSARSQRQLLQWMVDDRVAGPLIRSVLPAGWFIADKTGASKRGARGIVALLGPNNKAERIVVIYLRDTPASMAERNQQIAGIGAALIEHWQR
Format: biochemical. Conditions: read-out: Ki (SHV-12, NCF); purified SHV-12; nitrocefin reporter substrate.

Assay [4] concerns the target T4, purified class A, C and D enzymes (UniProt Q48434).
T4 construct: rows headed: Ki (CMY-2, NCF); other: purified CMY-2; nitrocefin reporter substrate
The assay is classed as biochemical. Conditions: read-out: Ki (CMY-2, NCF); purified CMY-2; nitrocefin reporter substrate.

The target in assay [5] is T5, purified class A, C and D enzymes (UniProt Q6XEC0).
T5 construct: rows headed: Ki (OXA-48, NCF); other: purified OXA-48; nitrocefin reporter substrate
The assay is classed as biochemical. Conditions: read-out: Ki (OXA-48, NCF); purified OXA-48; nitrocefin reporter substrate.

In assay [6] the target is T6, purified class A, C and D enzymes (UniProt Q9F663).
T6 construct: rows headed: Ki (KPC-2, NCF); other: purified KPC-2; nitrocefin reporter substrate
Format: biochemical. The note with it: read-out: Ki (KPC-2, NCF); purified KPC-2; nitrocefin reporter substrate.

The subject of assay [7] is EC1064 (NDM-1, CMY-6, CTX-M-15). Nature of the assay: Carbapenem potentiation against clinical isolate (MIC). The note with it: antibiotic alone. Format: cell-based, Escherichia coli.
Assay [8] relates to KP1081 (NDM-1, TEM-1, SHV-11, CMY-6, CTX-M-15). The description is as above. Conditions: antibiotic alone. The assay is classed as cell-based.
A further assay concerns AB1144 (NDM-1). The assay is described as above. The assay is classed as cell-based, Acinetobacter baumannii. Conditions: AB1144; antibiotic alone.
In another assay the test system is EA1019 (SHV-5, VIM-1). The description is as above. Format: cell-based, Enterobacter aerogenes. The note with it: EA1019; antibiotic alone.
Another assay has as its system KP1014 (VIM-1). The assay is described as above. Conditions: antibiotic alone. The assay is classed as cell-based, Klebsiella pneumoniae.
In another assay the test system is KP1054 (VIM-1, SHV-11). The description is as above. The note with it: antibiotic alone. The assay is classed as cell-based, Klebsiella pneumoniae.
The test system of assay [9] is KP1064 (KPC-2, SHV-11, TEM-1). Described as above. The assay is classed as cell-based, Klebsiella pneumoniae. Conditions: antibiotic alone.
The subject of assay [10] is KP1074 (KPC-3, SHV-11, TEM). Described as above. Format: cell-based, Klebsiella pneumoniae. The note with it: antibiotic alone.
Assay [11] relates to KP1084 (KPC-3, SHV-11, TEM-1). The description is as above. The assay is classed as cell-based, Klebsiella pneumoniae. Conditions: antibiotic alone.
For assay [12], the system named is KP1004 (KPC-2, TEM-1, SHV-11). The assay is described as above. The assay is classed as cell-based, Klebsiella pneumoniae. The note with it: antibiotic alone.
Assay [13] relates to KP1087 (KPC-2, CTX-M-15, SHV-11, TEM-1). The assay is described as above. The assay is classed as cell-based. Conditions: antibiotic alone.
The test system of assay [14] is KP1086 (TEM, SHV, CTX-M-15, OXA-48). The description is as above. Format: cell-based, Klebsiella pneumoniae. Conditions: antibiotic alone.
[15] abbreviates: cleavage of imipenem (100 uM) by NDM-1, read-out: Ki, Imipenem.
Where [16] appears, read: cleavage of tebipenem (100 uM) by NDM-1, read-out: Ki, Tebipenem.

Chain of OXA-48 (Q6XEC0 23-265, looked up): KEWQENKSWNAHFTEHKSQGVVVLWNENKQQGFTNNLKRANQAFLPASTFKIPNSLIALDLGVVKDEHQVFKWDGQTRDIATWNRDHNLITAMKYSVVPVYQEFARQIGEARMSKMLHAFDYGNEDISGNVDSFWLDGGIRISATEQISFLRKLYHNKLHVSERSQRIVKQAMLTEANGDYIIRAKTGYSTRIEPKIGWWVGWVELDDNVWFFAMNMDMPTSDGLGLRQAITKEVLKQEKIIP
T1 sequence (C7C422 29-270, looked up, species assumed): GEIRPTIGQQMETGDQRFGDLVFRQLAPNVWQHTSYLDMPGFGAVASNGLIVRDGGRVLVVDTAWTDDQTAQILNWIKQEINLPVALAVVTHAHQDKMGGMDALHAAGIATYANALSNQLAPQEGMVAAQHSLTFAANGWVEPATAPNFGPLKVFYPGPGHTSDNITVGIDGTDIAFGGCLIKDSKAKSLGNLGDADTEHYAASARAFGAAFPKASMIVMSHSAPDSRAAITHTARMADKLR

Regarding `O=C(O)c1cccc2c1OB(O)[C@@H](Sc1nnc[nH]1)C2` [Compound 2, (R)-3-(4H-1,2,4-triazol-3-ylthio)-2-hydroxy-3,4-dihydro-2H-benzo[e][1,2]oxaborinine-8-carboxylic acid], the Ki was < 10 nM at NDM-1 [1] (setting [15]); 10 to 100 nM at NDM-1 [1] (setting [16]); 10 to 100 nM at OXA-48; < 10 nM on NDM-1 [2]; < 100 nM in [3]; 100 to 1000 nM in assay [4]. Besides, the Ki was < 100 nM in assay [5] and 100 to 1000 nM in [6]. In addition, the IC50 at VIM-1 is < 1000 nM.
Regarding `NC(=O)CS[C@H]1Cc2cccc(C(=O)O)c2OB1O` [Compound 3, (R)-3-(2-amino-2-oxoethylthio)-2-hydroxy-3,4-dihydro-2H-benzo[e][1,2]oxaborinine-8-carboxylic acid], the Ki at NDM-1 [1] (cleavage of biapenem (100 uM) by NDM-1, read-out: Ki, Biapenem) was > 100 nM; on NDM-1 [1] (setting [15]), > 100 nM; at NDM-1 [1] (setting [16]) it was > 100 nM; at OXA-48, < 10 nM; at NDM-1 [2], > 100 nM; in assay [3], 100 to 1000 nM. Further, the Ki in assay [4], in assay [5] and in assay [6] was < 100 nM throughout.
With `NC(=O)CCS[C@H]1Cc2cccc(C(=O)O)c2OB1O` [Compound 9, (R)-3-(3-amino-3-oxopropylthio)-2-hydroxy-3,4-dihydro-2H-benzo[e][1,2]oxaborinine-8-carboxylic acid], the Ki on NDM-1 [1] (setting [15]) was > 100 nM; at OXA-48, 10 to 100 nM; at NDM-1 [2], > 100 nM; in assay [3], 100 to 1000 nM; in assay [4], < 100 nM; in [5], < 100 nM. Moreover, in assay [6], the Ki was < 100 nM. Besides, the IC50 against VIM-1 is < 1000 nM.
Regarding `C[C@@H](O)[C@H]1C(=O)N2C(C(=O)O)=C(S[C@@H]3CN[C@H](CNS(N)(=O)=O)C3)[C@H](C)[C@H]12` [Doripenem], the “Carbapenem MIC Alone” value in [7] was “Z (MIC of greater than 10 μg/mL)”; in assay [8], “Z (MIC of greater than 10 μg/mL)”; with AB1144 (NDM-1), “Z (MIC of greater than 10 μg/mL)”; with EA1019 (SHV-5, VIM-1), “Z (MIC of greater than 10 μg/mL)”; in the assay with KP1014 (VIM-1), “Z (MIC of greater than 10 μg/mL)”; in the assay with KP1054 (VIM-1, SHV-11), “Z (MIC of greater than 10 μg/mL)”. The “Carbapenem MIC Alone” value is listed as “Z (MIC of greater than 10 μg/mL)” in assay [9]; “Z (MIC of greater than 10 μg/mL)” in [10]; “Z (MIC of greater than 10 μg/mL)” in assay [11]; “Y (MIC of 1 μg/mL to 10 μg/mL)” in assay [12]; “Z (MIC of greater than 10 μg/mL)” in [13]; “Z (MIC of greater than 10 μg/mL)” in assay [14].
